IC50 data for 20 compounds are collected here from ChEMBL document CHEMBL4052628, “Synthesis and cytotoxicity of a novel series of saframycin-ecteinascidin analogs containing tetrahydro-β-carboline moieties” (Eur J Med Chem, 2017).

Format in all cases: functional, cell-based
One assay relates to A2780. Description: Cytotoxicity against human A2780 cells assessed as reduction in cell viability after 72 hrs by MTT assay. As to conditions: A2780, 72 h.
In a further assay the test system is MCF7. In words: Cytotoxicity against human MCF7 cells assessed as reduction in cell viability after 72 hrs by MTT assay. The conditions noted are these: MCF7, 72 h.
The next assay has as its system HT-29. In words: Cytotoxicity against human HT-29 cells assessed as reduction in cell viability after 72 hrs by MTT assay. The conditions noted are these: HT-29, 72 h.
The test system of a further assay is BGC-823. Description: Cytotoxicity against human BGC823 cells assessed as reduction in cell viability after 72 hrs by MTT assay. The conditions noted are these: BGC-823, 72 h.
The subject of the next assay is HCT-116. Description: Cytotoxicity against human HCT116 cells assessed as reduction in cell viability after 72 hrs by MTT assay. As to conditions: HCT-116, 72 h.
The test system of a further assay is HepG2. In words: Cytotoxicity against human HepG2 cells assessed as reduction in cell viability after 72 hrs by MTT assay. The conditions noted are these: HepG2, 72 h.

Turning to `CCc1ccc(C(=O)NC[C@H]2c3[nH]c4ccccc4c3C[C@H]3[C@H]4c5[nH]c6ccccc6c5C[C@@H]([C@H](C#N)N23)N4C)cc1`, the IC50 was 0.67 µM with A2780; 0.17 µM in the assay on MCF7; 3.56 µM with HT-29; 0.66 µM in the assay on BGC-823; 0.1 µM with HCT-116; 0.57 µM in the assay on HepG2.
Consider `COc1ccc(/C=C/C(=O)NC[C@H]2c3[nH]c4ccccc4c3C[C@H]3[C@H]4c5[nH]c6ccccc6c5C[C@@H]([C@H](C#N)N23)N4C)cc1`, for which the IC50 with A2780 amounted to 0.86 µM; in the assay with MCF7, 4.22 µM; in the assay on HT-29, 3.06 µM; in the assay on BGC-823, 5.45 µM; in the assay with HCT-116, 5.06 µM; in the assay on HepG2 it was 2.14 µM.
With `CN1[C@@H]2c3[nH]c4ccccc4c3C[C@H]1[C@H](C#N)N1[C@@H](CNC(=O)c3cc4ccccc4s3)c3[nH]c4ccccc4c3C[C@@H]21`, the IC50 in the assay with A2780 was 0.02 µM; with MCF7 it was 3.18 µM; with HT-29 it was 0.64 µM; in the assay on BGC-823 it was 0.24 µM; in the assay with HCT-116, 0.5 µM; in the assay on HepG2 it was 0.3 µM.
For the compound `CN1[C@@H]2c3[nH]c4ccccc4c3C[C@H]1[C@H](C#N)N1[C@@H](CNC(=O)c3ccccc3)c3[nH]c4ccccc4c3C[C@@H]21`, the concentration for half-maximal inhibition (IC50) in the assay with A2780 worked out at 0.2 µM; in the assay on MCF7 it was 9.67 µM; in the assay on HT-29 it was 0.14 µM; with BGC-823 it was 0.74 µM; in the assay with HCT-116 it was 0.43 µM; in the assay with HepG2, 0.25 µM.
`CN1[C@@H]2c3[nH]c4ccccc4c3C[C@H]1[C@H](C#N)N1[C@@H](CNC(=O)c3cc4ccccc4o3)c3[nH]c4ccccc4c3C[C@@H]21`: the IC50 with A2780 was 0.23 µM; with MCF7, 0.32 µM; with HT-29 it was 0.85 µM; in the assay with BGC-823 it was 0.21 µM; in the assay with HCT-116 it was 0.33 µM; with HepG2 it was 0.28 µM.
With `CN1[C@@H]2c3[nH]c4ccccc4c3C[C@H]1[C@H](C#N)N1[C@@H](CNC(=O)c3ccco3)c3[nH]c4ccccc4c3C[C@@H]21`, the IC50 in the assay on A2780 amounted to 0.12 µM; in the assay on MCF7 it was 0.16 µM; with HT-29, 0.1 µM; in the assay on BGC-823, 0.3 µM; in the assay on HCT-116, 0.17 µM; in the assay on HepG2 it was 0.25 µM.
For `CN1[C@@H]2c3[nH]c4ccccc4c3C[C@H]1[C@H](C#N)N1[C@@H](CNC(=O)/C=C/c3cccc(C(F)(F)F)c3)c3[nH]c4ccccc4c3C[C@@H]21`, the 50% inhibitory concentration (IC50) is greater than 10 µM in the assay on A2780; 0.11 µM with MCF7; 5.06 µM in the assay with HT-29; 0.91 µM with BGC-823; 0.61 µM in the assay with HCT-116; 0.54 µM with HepG2.
In the case of `CN1[C@@H]2c3[nH]c4ccccc4c3C[C@H]1[C@H](C#N)N1[C@@H](CNC(=O)c3ccccn3)c3[nH]c4ccccc4c3C[C@@H]21`, the IC50 with A2780 worked out at 0.03 µM; in the assay with MCF7 it was 0.04 µM; in the assay with HT-29 it was 0.07 µM; with BGC-823, 0.08 µM; in the assay on HCT-116 it was 0.04 µM; with HepG2 it was 0.07 µM.
In the case of `CN1[C@@H]2c3[nH]c4ccccc4c3C[C@H]1[C@H](C#N)N1[C@@H](CNC(=O)c3cccs3)c3[nH]c4ccccc4c3C[C@@H]21`, the IC50 amounted to 0.23 µM in the assay with A2780; 0.47 µM with MCF7; 1.33 µM with HT-29; 0.28 µM in the assay with BGC-823; 0.55 µM in the assay with HCT-116; 0.18 µM in the assay on HepG2.
For `CN1[C@@H]2c3[nH]c4ccccc4c3C[C@H]1[C@H](C#N)N1[C@@H](CN3C(=O)c4ccccc4C3=O)c3[nH]c4ccccc4c3C[C@@H]21`, the IC50 in the assay on A2780 was determined as 0.08 µM; with MCF7 it was 0.61 µM; in the assay with HT-29, 0.08 µM; in the assay with BGC-823, 0.41 µM; with HCT-116, 0.04 µM; with HepG2 it was 0.02 µM.
`CN1[C@@H]2c3[nH]c4ccccc4c3C[C@H]1[C@H](C#N)N1[C@@H](CNC(=O)c3ccc4ccccc4c3)c3[nH]c4ccccc4c3C[C@@H]21`: the IC50 in the assay on A2780 was 1.03 µM; in the assay with MCF7, 4.65 µM; with HT-29 it was 4.94 µM; in the assay with BGC-823 it was 1.11 µM; in the assay on HCT-116 it was 0.42 µM; in the assay on HepG2 it was 1.21 µM.
Regarding `COc1ccc(C(=O)NC[C@H]2c3[nH]c4ccccc4c3C[C@H]3[C@H]4c5[nH]c6ccccc6c5C[C@@H]([C@H](C#N)N23)N4C)cc1`, the IC50 in the assay with A2780 turned out to be 0.32 µM; in the assay with MCF7, 0.6 µM; with HT-29, 0.84 µM; with BGC-823, 0.32 µM; in the assay with HCT-116, 0.43 µM; with HepG2, 0.31 µM.
Regarding `CN1[C@@H]2c3[nH]c4ccccc4c3C[C@H]1[C@H](C#N)N1[C@@H](CNC(=O)c3ccc4ccccc4n3)c3[nH]c4ccccc4c3C[C@@H]21`, the IC50 in the assay on A2780 amounted to 0.06 µM; in the assay on MCF7, 0.15 µM; with HT-29 it was 0.15 µM; in the assay with BGC-823, 0.08 µM; with HCT-116, 0.24 µM; in the assay with HepG2 it was 0.11 µM.
Regarding `CN1[C@@H]2c3[nH]c4ccccc4c3C[C@H]1[C@H](C#N)N1[C@@H](CNC(=O)c3ccc(Cl)cc3)c3[nH]c4ccccc4c3C[C@@H]21`, the IC50 with A2780 was found to be 0.23 µM; in the assay on MCF7, 0.61 µM; in the assay on HT-29, 0.13 µM; with BGC-823, 0.11 µM; with HCT-116, 0.63 µM; in the assay with HepG2, 0.35 µM.
In the case of `CN1[C@@H]2c3[nH]c4ccccc4c3C[C@H]1[C@H](C#N)N1[C@@H](CNC(=O)c3ccc(F)cc3)c3[nH]c4ccccc4c3C[C@@H]21`, the IC50 was determined as 0.25 µM in the assay on A2780; 0.98 µM with MCF7; 1.37 µM in the assay on HT-29; 0.31 µM with BGC-823; 0.14 µM in the assay with HCT-116; 0.21 µM with HepG2.
With `CN1[C@@H]2c3[nH]c4ccccc4c3C[C@H]1[C@H](C#N)N1[C@@H](CNC(=O)c3cc4ccccc4[nH]3)c3[nH]c4ccccc4c3C[C@@H]21`, the IC50 in the assay with A2780 was 7.1 µM; with MCF7, 9.78 µM; with HT-29, 1.22 µM; in the assay on BGC-823 it was 1.69 µM; in the assay with HCT-116, 0.88 µM; with HepG2 it was 0.44 µM.
For `CN1[C@@H]2c3[nH]c4ccccc4c3C[C@H]1[C@H](C#N)N1[C@@H](CNC(=O)c3cccc4c3CCCC4)c3[nH]c4ccccc4c3C[C@@H]21`, the IC50 was determined as 0.81 µM in the assay on A2780; 4.47 µM with MCF7; 3.34 µM in the assay on HT-29; 3.54 µM in the assay with BGC-823; 4.21 µM in the assay on HCT-116; 0.54 µM in the assay on HepG2.
Take `CN1[C@@H]2c3[nH]c4ccccc4c3C[C@H]1[C@H](C#N)N1[C@@H](CNC(=O)/C=C/c3ccccc3)c3[nH]c4ccccc4c3C[C@@H]21`: the IC50 with A2780 came to 0.77 µM; in the assay with MCF7, 7.19 µM; in the assay on HT-29, 1.4 µM; with BGC-823, 4.3 µM; with HCT-116, 1.96 µM; with HepG2, 0.47 µM.
Turning to `CN1[C@@H]2c3[nH]c4ccccc4c3C[C@H]1[C@H](C#N)N1[C@@H](CNC(=O)c3cccc(C(F)(F)F)c3)c3[nH]c4ccccc4c3C[C@@H]21`, the IC50 is 0.21 µM with A2780; 0.11 µM in the assay on MCF7; 0.14 µM with HT-29; 0.87 µM in the assay on BGC-823; 0.63 µM in the assay on HCT-116; 0.34 µM in the assay on HepG2.
On to `CC(=O)NC[C@H]1c2[nH]c3ccccc3c2C[C@H]2[C@H]3c4[nH]c5ccccc5c4C[C@@H]([C@H](C#N)N12)N3C`, for which the IC50 is 0.63 µM with A2780; 5.3 µM with MCF7; 1.18 µM with HT-29; 2.2 µM in the assay on BGC-823; 4.34 µM with HCT-116; 0.42 µM with HepG2.
